Among the data in PubChem BioAssay AID328 (DTP/NCI, 2004) are T/C values, retold here.

The structures appear in SMILES notation. Values joined by “and” are separate entries in the source; they are usually repeats but may differ in a detail not shown here. Equal values may be shown once. Inconclusive results and toxic doses are left out.

The test concerns BDF1 mice, P388 leukemia ip, median survival T/C. Nature of the test: NCI In Vivo Anticancer Drug Screen. Data for tumor model P388 Leukemia (intraperitoneal) in B6D2F1 (BDF1) mice. Particulars: endpoint: median survival time, higher = longer survival. In short, it runs like this:
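Steps: implant the tumour, treat one group with compound and another with vehicle, record survival, then divide treated by control.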

The mark [1] stands for this setting: dose: 100.0 mg/kg/injection, schedule: Q01DX009 (ip), vehicle: saline.
Where [2] appears, read: dose: 200.0 mg/kg/injection, schedule: Q01DX009 (ip), vehicle: saline.
Setting [3] is: dose: 400.0 mg/kg/injection, schedule: Q01DX009 (ip), vehicle: saline.
Setting [4] is: dose: 100.0 mg/kg/injection, schedule: Q04DX003 (ip), vehicle: saline.
[5] abbreviates: dose: 200.0 mg/kg/injection, schedule: Q04DX003 (ip), vehicle: saline.
Setting [6] is: dose: 400.0 mg/kg/injection, schedule: Q04DX003 (ip), vehicle: saline.
The mark [7] stands for this setting: dose: 25.0 mg/kg/injection, schedule: Q01DX009 (ip), vehicle: saline.
Setting [8] is: dose: 50.0 mg/kg/injection, schedule: Q01DX009 (ip), vehicle: Klucel (hydroxypropylcellulose) (HPC).
[9] abbreviates: dose: 50.0 mg/kg/injection, schedule: Q01DX009 (ip), vehicle: saline.
[10] abbreviates: dose: 100.0 mg/kg/injection, schedule: Q01DX009 (ip), vehicle: Klucel (hydroxypropylcellulose) (HPC).
The mark [11] stands for this setting: dose: 100.0 mg/kg/injection, schedule: Q04DX003 (ip), vehicle: Klucel (hydroxypropylcellulose) (HPC).
Setting [12] is: dose: 200.0 mg/kg/injection, schedule: Q04DX003 (ip), vehicle: Klucel (hydroxypropylcellulose) (HPC).
Setting [13] is: dose: 200.0 mg/kg/injection, schedule: Q04DX003 (ip), vehicle: saline with Tween-80.
Where [14] appears, read: dose: 100.0 mg/kg/injection, schedule: Q04DX003 (ip), vehicle: saline with Tween-80.
Where [15] appears, read: dose: 400.0 mg/kg/injection, schedule: Q04DX003 (ip), vehicle: saline with Tween-80.

Take `CC(C)C1CCC2=C(CCC3C(C)(C(=O)O)CCCC23C)C1` (configuration not stated): the T/C by setting is: under setting [1], 109 % of control; under setting [2], 100 % of control; under setting [3], 100 % of control.
Regarding `Cn1c(=O)[nH]c(=O)c2nc(-c3cccnc3)c(-c3ccncc3)nc21`, the T/C was 101 % of control (dose: 100.0 mg/kg/injection, schedule: Q04DX002 (ip), vehicle: saline with Tween-80); 99 % of control (dose: 200.0 mg/kg/injection, schedule: Q04DX002 (ip), vehicle: saline with Tween-80); 110 % of control (dose: 400.0 mg/kg/injection, schedule: Q04DX002 (ip), vehicle: saline with Tween-80).
Consider `Cc1[nH]c(=O)[nH]c(=O)c1NCCO`, for which the T/C is 102 % of control (dose: 50.0 mg/kg/injection, schedule: Q01DX009 (ip), vehicle: water); 109 % of control (dose: 100.0 mg/kg/injection, schedule: Q01DX009 (ip), vehicle: water); 105 % of control (dose: 200.0 mg/kg/injection, schedule: Q01DX009 (ip), vehicle: water); 112 % of control (dose: 400.0 mg/kg/injection, schedule: Q01DX009 (ip), vehicle: water).
As for `CC(=O)CC(C)=O.CC(=O)CC(C)=O.[NH-]C1CCCCC1.[NH-]C1CCCCC1.[Ni+2]`, the T/C is, setting by setting: (dose: 19.0 mg/kg/injection, schedule: Q04DX003 (ip), vehicle: saline with Tween-80) 104 % of control; (dose: 20.0 mg/kg/injection, schedule: Q04DX003 (ip), vehicle: saline) 100 % of control; (dose: 37.5 mg/kg/injection, schedule: Q04DX003 (ip), vehicle: saline with Tween-80) 118 % of control; (dose: 40.0 mg/kg/injection, schedule: Q04DX003 (ip), vehicle: saline) 112 % of control.
`C/C1=C/CCCCCC1`: the T/C was 104 % of control under setting [1]; 95 % of control under setting [4]; 90 % of control under setting [2]; 100 % of control under setting [5]; 113 % of control under setting [3]; 95 % of control under setting [6].
As to `CC(C)C1C(=O)N2CCCC2C2(O)OC(NC(=O)C3C=C4c5cccc6[nH]cc(c56)CC4N(C)C3)(C(C)C)C(=O)N12` (configuration not stated), the T/C runs as follows: (dose: 12.5 mg/kg/injection, schedule: Q01DX009 (ip), vehicle: Klucel (hydroxypropylcellulose) (HPC)) 109 % of control; under setting [7], 115 % of control; (dose: 25.0 mg/kg/injection, schedule: Q04DX003 (ip), vehicle: Klucel (hydroxypropylcellulose) (HPC)) 91 % of control; under setting [8], 109 % of control; under setting [9], 110 % of control; (dose: 50.0 mg/kg/injection, schedule: Q04DX003 (ip), vehicle: Klucel (hydroxypropylcellulose) (HPC)) 91 % of control. For the same compound, the T/C is, setting by setting: under setting [10], 118 % of control; under setting [1], 109 % of control and 120 % of control; under setting [11], 104 % of control; under setting [12], 100 % of control; under setting [5], 120 % of control; under setting [6], 100 % of control.
As for `CO[C@H](C)[C@](O)(C(=O)OCC1=CC[N+]2([O-])CC[C@H](O)[C@@H]12)C(C)C` (some centres not stated), the T/C was 100 % of control (dose: 40.0 mg/kg/injection, schedule: Q01DX010 (ip), vehicle: saline); 105 % of control (dose: 80.0 mg/kg/injection, schedule: Q01DX010 (ip), vehicle: saline); 116 % of control (dose: 160.0 mg/kg/injection, schedule: Q01DX010 (ip), vehicle: saline); 117 % of control (dose: 200.0 mg/kg/injection, schedule: Q01DX007 (ip), vehicle: water); 119 % of control (dose: 400.0 mg/kg/injection, schedule: Q01DX007 (ip), vehicle: water); 119 % of control (dose: 800.0 mg/kg/injection, schedule: Q01DX007 (ip), vehicle: water). Moreover, for the setting “dose: 1600.0 mg/kg/injection, schedule: Q01DX007 (ip), vehicle: water”, the T/C was 94 % of control.
Regarding `O=[N+]([O-])CC(O)c1ccc2ccccc2n1` (configuration not stated), the T/C under setting [7] was 86 % of control; the T/C under setting [9] was 86 % of control; the T/C (dose: 50.0 mg/kg/injection, schedule: Q04DX003 (ip), vehicle: saline) was 109 % of control; the T/C under setting [1] was 89 % of control; the T/C under setting [4] was 95 % of control; the T/C under setting [5] was 90 % of control.
For `N=C(N)SCc1c2ccccc2cc2ccccc12`, the T/C under setting [13] is 163 % of control and the T/C (dose: 300.0 mg/kg/injection, schedule: Q04DX003 (ip), vehicle: saline with Tween-80) is 90 % of control.
`CC1(C)CC2(OC2c2ccccc2)C(C)(O)c2ccccc21` (configuration not stated): the T/C is 95 % of control under setting [10]; 110 % of control under setting [11]; 90 % of control (dose: 200.0 mg/kg/injection, schedule: Q01DX009 (ip), vehicle: Klucel (hydroxypropylcellulose) (HPC)); 105 % of control under setting [12]; 100 % of control (dose: 400.0 mg/kg/injection, schedule: Q01DX009 (ip), vehicle: Klucel (hydroxypropylcellulose) (HPC)); 105 % of control (dose: 400.0 mg/kg/injection, schedule: Q04DX003 (ip), vehicle: Klucel (hydroxypropylcellulose) (HPC)).
For the compound `CCC(C)NC(=S)N/N=C\C=N/NC(=S)NC(C)CC` (configuration not stated), the T/C was 99 % of control (dose: 75.0 mg/kg/injection, schedule: Q01DX009 (ip), vehicle: saline with Tween-80); 92 % of control (dose: 150.0 mg/kg/injection, schedule: Q01DX009 (ip), vehicle: saline with Tween-80); 103 % of control (dose: 300.0 mg/kg/injection, schedule: Q01DX009 (ip), vehicle: saline with Tween-80).
For the compound `NCCCOc1ccc([N+](=O)[O-])cc1Cl`, the T/C runs as follows: under setting [7], 105 % of control; under setting [9], 105 % of control; under setting [1], 104 % of control.
`CC1(C)O[C@@H]2C[C@H]3[C@@H]4CCC5=CC(=O)CC[C@]5(C)[C@@]4(F)[C@@H](O)C[C@]3(C)[C@]2(C(=O)CO)O1`: the T/C runs as follows: under setting [14], 108 % of control; under setting [13], 108 % of control; under setting [15], 100 % of control.
For the compound `CC(/C=C/c1ccccc1)=Nc1ccc(C)cc1`, the T/C is 104 % of control under setting [14], 101 % of control under setting [13] and 104 % of control under setting [15].
With `COc1ccccc1CC(C)N` (configuration not stated), the T/C (dose: 20.0 mg/kg/injection, schedule: Q01DX009 (ip), vehicle: saline with Tween-80) was 87 % of control and the T/C (dose: 80.0 mg/kg/injection, schedule: Q01DX009 (ip), vehicle: saline with Tween-80) was 91 % of control.
As to `Oc1ccccc1C1N=NC2=C(CCCC2)N1O` (configuration not stated), the T/C is 99 % of control under setting [8] and 93 % of control under setting [10].
For `CC(=O)OC1C=CCC2C(=O)C34CC=CC(OC(C)=O)C3(C(=O)c3ccccc3C4=O)C(=O)C12` (configuration not stated), the T/C is, setting by setting: (dose: 3.12 mg/kg/injection, schedule: Q01DX009 (ip), vehicle: saline) 95 % of control; (dose: 12.5 mg/kg/injection, schedule: Q01DX009 (ip), vehicle: saline) 95 % of control; under setting [7], 114 % of control.
Consider `COc1ccc(/C(C)=C\C(=O)O)cc1`, for which the T/C is 100 % of control under setting [14], 100 % of control under setting [13] and 95 % of control under setting [15].
Turning to `C/C1=C/C2=CC(C)C[C@@H]2C(=O)[C@]2(C)C(=O)CC(C)(C)[C@H]2CC1=O` (some centres not stated), the T/C is, setting by setting: (dose: 0.12 mg/kg/injection, schedule: Q01DX009 (ip), vehicle: alcohol) 106 % of control; (dose: 0.25 mg/kg/injection, schedule: Q01DX009 (ip), vehicle: alcohol) 122 % of control; (dose: 1.4 mg/kg/injection, schedule: Q01DX009 (ip), vehicle: alcohol) 108 % of control; (dose: 2.2 mg/kg/injection, schedule: Q01DX009 (ip), vehicle: alcohol) 110 % of control.
Turning to `CN(C)c1ccc(/C=C/c2ccnc3ccc(Br)cc23)cc1`, the T/C was 109 % of control (dose: 50.0 mg/kg/injection, schedule: Q01DX009 (ip), vehicle: saline with Tween-80); 114 % of control (dose: 100.0 mg/kg/injection, schedule: Q01DX009 (ip), vehicle: saline with Tween-80); 116 % of control (dose: 200.0 mg/kg/injection, schedule: Q01DX009 (ip), vehicle: saline with Tween-80).
